Legend:
[1] = system: IAPV; assay: IAPV mRNA titer in excised dorsal vessels by qRT-PCR; type: in vivo, Israeli acute paralysis virus; details: pinacidil 24 h prior to IAPV inoculation; vessels excised 24 h post-inoculation
Description: Groups of 30 age-matched bees were fed 1:1 sucrose diet alone or containing KATP modulators or 0.5 mg/mL paraquat for 24 h. Bees were immobilized on ice, then injected with PBS alone or containing IAPV and returned to the incubator. Mortality assessments and sampling of survivors were conducted at 24-h intervals. Quantification of IAPV mRNA among whole bees and excised insect dorsal vessels was performed by qRT-PCR as detailed below.
(§1) Samples were removed from − 80 °C storage and placed in a nuclease-free chilled bead bath (~ 4 °C) to gently thaw. […] RNA concentrations were then quantified for each sample using the NanoDrop 1-C® instrument. […] Library construction was performed using the Quantitect Reverse Transcription kit according to manufacturer instructions (Qiagen, N.V.). Template cDNA was then quantified by NanoDrop 1-C® and standardized to 500 ng/uL by addition of nuclease-free H2O.
To accurately quantify virus infection, it was necessary to first construct a standard curve for each target virus. […] Single-stranded DNA concentration was quantified for each cDNA library with the NanoDrop 1-C® instrument (Thermofisher Scientific) and the number of amplicon copies per μL of solution was determined using online calculators available at SciencePrimer.com. […]

[2] = system: total antioxidant concentrations in bees; assay: Total antioxidant capacity of bees (quantification of ROS); type: in vivo, Apis mellifera; details: alone
Description: The ability of KATP modulators to rescue or synergize paraquat-induced mortality was then assessed by incorporating modulators into 1:1 sucrose containing paraquat. […] Quantification of ROS among survivors was performed using the Total Antioxidant Capacity Assay kit (Cayman Chemical).

[3] = system: glucose oxidase (GOX); assay: Glucose oxidase activity of treated bees (social immunity); type: in vivo, Apis mellifera
Description: Individual bees were sampled at 24-h intervals and frozen in liquid nitrogen. Social immunity was measured by quantifying the metabolism of glucose to hydrogen peroxide by glucose oxidase. Briefly, heads were homogenized in ice-cold extraction buffer then centrifuged at 15,000×g. Aliquots of supernatant were incubated with horse radish peroxidase and glucose at 37 °C, then combined with the chromogen o-dianisidine dihydrochloride. Absorbance was read at 430 nm over a period of 90 min and compared to sample blanks, lacking chromogen. To measure individual immunity, phenoloxidase activity was measured as described. Abdomens were homogenized as and centrifuged as previously described. Supernatant was incubated at 37 °C, then combined with the chromogen L-Dopa. Absorbance was measured at 490 nm for 20 min, then compared to sample blanks lacking chromogen. To compare both glucose oxidase and phenol oxidase activity between samples, Vmax was calculated using the Michaelis–Menten equation.

[4] = system: DWV-A; assay: Field colony study, change in virus titer by qRT-PCR: DWV-A; type: in vivo, Deformed Wing virus
Description: (§2) Nucleus colonies of bees were established as previously described and relocated to a geographically isolated apiary and were grown to full-size colonies and equalized based on population prior to initiation of the study. The bees were maintained in eight-frame Langstroth equipment and kept as single deeps with a medium super with undrawn foundation. […] DWV inoculum was prepared by injecting filter-sterilized homogenate from a DWV-positive symptomatic bee into white-eyed honey bee pupae. 72-h later, an aliquot of pupae was screened for preliminary confirmation of DWV infection and found to contain between 5E9 and 8E9 viral copies of DWV-A per individual. Remaining pupae were homogenized in ice-cold PBS, with aliquots retained for qRT-PCR screening of DWV, as well as additional viruses relevant to bee health. Homogenate solutions were diluted in 1:1 sucrose and placed in calibrated spray bottles. A treatment and sampling schedule was constructed based on the 21-day egg-to-adult life history of worker bees (Additional file 1: Fig. S1). Both pinacidil and virus solutions were prepared fresh daily. […] A quantity of 15 fully formed adult stage bees were removed from the capped cells and placed into 15 mL conical vials. All samples were stored on dry ice during field collection, then transferred to − 80 °C until virus quantification. Titers of DWV-A, DWV-B, BQCV, IAPV, LSV-1 and LSV-2 were quantified by qRT-PCR using primer sequences described in our previous publications.
as §1
(§3) To accurately quantify virus infection, it was necessary to first construct a standard curve for each target virus. […]

[5] = system: Black queen cell virus (BQCV); assay: Field colony study, change in virus titer by qRT-PCR: BQCV; type: in vivo
Description: as §2, §1, §3

[6] = emerging brood, 2 mM pinacidil, colony level

CC(N/C(=N\C#N)Nc1ccncc1)C(C)(C)C (centres unmarked) [pinacidil]
Reduction in IAPV mRNA titer in the dorsal vessel versus IAPV-inoculated bees [1]: 17.5 fold
Antioxidant levels compared to untreated individuals ([2]; 24 h post-treatment): did not reduce
Reduction of total antioxidant concentrations ([2]; 72 h): 1.5 fold
Increase in GOX activity compared to untreated bees ([3]; 24-h exposure): 3 fold
Increase in GOX activity compared to untreated bees ([3]; 72-h exposure): 2.3 fold
Change of DWV-A titer versus uninoculated colonies ([4]; emerging brood, 2 mM pinacidil): not significantly different
Reduction of change in DWV-A titer compared to virus only inoculated colonies [4, 6]: eight
DWV-A titers, virus only versus pinacidil + virus ([4]; nurse/forager bees): not significantly different
Change in BQCV titer versus untreated colonies ([5]; emerging brood, 2 mM pinacidil): not significantly different
Reduction of BQCV replication compared to virus only [5, 6]: 3.8 fold
BQCV replication compared to virus only inoculated colonies ([5]; nurse/forager bees): did not reduce viral replication
